According to PubChem BioAssay (NCI):
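Where inhibition never reached the appropriate level, the endpoint shown equals the highest concentration tested. Otherwise, values were interpolated linearly from a five-concentration, 48-hour dose response in 96-well plates. TGI: concentration producing complete growth inhibition.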

Assays:
Test in all cases: inhibition of tumour cell growth, NCI panel, 48 h
[1] = tested on: OVCAR-4 ovarian
[2] = tested on: K-562 leukemia
[3] = tested on: LOX IMVI melanoma
[4] = tested on: UACC-62 melanoma
[5] = tested on: SK-OV-3 ovarian
[6] = tested on: SK-MEL-5 melanoma
[7] = tested on: SN12C renal
[8] = tested on: EKVX NSCLC
[9] = tested on: M14 melanoma
[10] = tested on: SW-620 colon
[11] = tested on: MALME-3M melanoma
[12] = tested on: PC-3 prostate
[13] = tested on: RXF 393 renal
[14] = tested on: T-47D breast
[15] = tested on: SK-MEL-2 melanoma
[16] = tested on: NCI/ADR-RES ovarian
[17] = tested on: NCI-H522 lung
[18] = tested on: HOP-92 NSCLC
[19] = tested on: CCRF-CEM leukemia
[20] = tested on: MCF7 breast

SMILES	TGI [1]	TGI [2]	TGI [3]	TGI [4]	TGI [5]	TGI [6]	TGI [7]	TGI [8]	TGI [9]	TGI [10]	TGI [11]	TGI [12]	TGI [13]	TGI [14]	TGI [15]	TGI [16]	TGI [17]	TGI [18]	TGI [19]	TGI [20]
COc1ccc(CCN(C)C(=O)CC(C#N)(c2ccccc2)c2ccc(OC)c(OC)c2)cc1OC (stereo unspecified)	> 100 µM	> 100 µM	> 100 µM	> 100 µM	> 100 µM	> 100 µM	> 100 µM	> 100 µM	> 100 µM	> 100 µM	> 100 µM	> 100 µM	> 100 µM	> 100 µM	> 100 µM	> 100 µM	> 100 µM	> 76 µM	> 100 µM	> 100 µM
CNC(=S)NNC1=NCCCCN1	> 100 µM	> 100 µM	> 100 µM	> 100 µM	> 100 µM	> 100 µM	–	> 100 µM	> 100 µM	> 100 µM	> 100 µM	> 100 µM	> 100 µM	> 100 µM	> 100 µM	> 100 µM	> 100 µM	> 100 µM	> 100 µM	> 100 µM
CC1=CCC[C@]2(C)C1=CC(=O)O[C@H]2c1ccoc1	> 100 µM	> 100 µM	> 100 µM	> 100 µM	> 100 µM	> 100 µM	> 100 µM	> 100 µM	–	> 100 µM	> 100 µM	> 100 µM	> 100 µM	> 100 µM	> 100 µM	> 100 µM	> 100 µM	> 100 µM	> 100 µM	> 100 µM
COC(=O)N/N=C(\C)C(CN1CCOCC1)C(c1ccccc1)c1cc2ccccc2oc1=O (stereo unspecified)	> 100 µM	> 100 µM	> 100 µM	> 100 µM	> 100 µM	> 100 µM	> 100 µM	> 100 µM	> 100 µM	> 100 µM	> 100 µM	> 100 µM	> 100 µM	> 100 µM	> 100 µM	> 100 µM	> 100 µM	> 100 µM	> 100 µM	> 100 µM
O=C(CCCN1CC=C(n2c(=O)[nH]c3ccccc32)CC1)c1cccs1	> 100 µM	> 100 µM	> 100 µM	> 100 µM	> 100 µM	> 100 µM	> 100 µM	> 100 µM	> 100 µM	> 100 µM	> 100 µM	> 100 µM	> 100 µM	> 100 µM	> 100 µM	> 100 µM	> 100 µM	> 100 µM	> 100 µM	> 100 µM
Nc1c(Cl)c([N+](=O)[O-])cc2c1OCCCCO2	> 100 µM	> 100 µM	> 100 µM	> 100 µM	55.6 µM	> 100 µM	> 100 µM	> 100 µM	> 100 µM	> 100 µM	> 100 µM	> 100 µM	> 100 µM	> 100 µM	> 100 µM	> 100 µM	5.28 µM	> 100 µM	> 100 µM	> 100 µM
O=C1CCSc2c(cnc3ccccc23)N1	> 100 µM	> 100 µM	> 100 µM	> 100 µM	> 100 µM	> 100 µM	> 100 µM	> 100 µM	> 100 µM	> 100 µM	> 100 µM	> 100 µM	> 100 µM	> 100 µM	> 100 µM	> 100 µM	> 100 µM	> 100 µM	> 100 µM	> 100 µM
C=CC1(c2ccc(Br)cc2)OCCCO1	> 100 µM	> 100 µM	> 100 µM	> 100 µM	> 100 µM	> 100 µM	> 100 µM	> 100 µM	> 100 µM	> 100 µM	> 100 µM	> 100 µM	> 100 µM	> 100 µM	> 100 µM	> 100 µM	> 100 µM	> 100 µM	> 100 µM	> 100 µM
O=C1NC(Cc2c[nH]c3ccccc23)C(=O)N2C(c3ccccc3)c3[nH]c4ccccc4c3C[C@@H]12 (stereo partly specified)	> 100 µM	55.1 µM	40.6 µM	34.7 µM	> 100 µM	32.7 µM	33.3 µM	65.2 µM	49.1 µM	> 100 µM	33.7 µM	53.8 µM	34.3 µM	> 100 µM	46.5 µM	58.3 µM	45.5 µM	53.7 µM	–	> 100 µM
CC(C)=CCC[C@@H](C)C1=C(Nc2ccccc2)C(O)=C(C)C(=O)C1=O	> 43.5 µM	> 39.9 µM	97.1 µM	20.7 µM	> 36.4 µM	7.97 µM	41.6 µM	> 39.4 µM	15.6 µM	> 48 µM	19.9 µM	> 40.5 µM	21.3 µM	32.3 µM	19.8 µM	3.96 µM	16.5 µM	9.9 µM	0.874 µM	22.5 µM
C/C(=C/CNc1ncnc2c1ncn2CCC#N)CO	> 100 µM	> 100 µM	> 100 µM	> 100 µM	> 100 µM	> 100 µM	> 100 µM	> 100 µM	> 100 µM	> 100 µM	> 100 µM	> 100 µM	> 100 µM	> 100 µM	–	> 100 µM	> 100 µM	> 100 µM	> 100 µM	> 100 µM
O=c1[nH]c(=O)n(C2CC(O)C(CO)O2)c2nc3ccc4ccccc4c3nc12 (stereo unspecified)	> 100 µM	> 100 µM	> 100 µM	> 100 µM	> 100 µM	> 100 µM	> 100 µM	> 100 µM	> 100 µM	> 100 µM	> 100 µM	> 100 µM	> 100 µM	> 100 µM	> 100 µM	> 100 µM	> 100 µM	> 100 µM	> 100 µM	> 100 µM
